The structures appear in SMILES notation.

We go through 30 compounds from patent US20220389019A1, “TrkB POSITIVE ALLOSTERIC MODULATORS” (Université de Strasbourg, priority 2019, published 2022).

In the assay the test system is TrkB. Nature of the assay: TrkB phosphorylation assay: potentiation of BDNF-induced TrkB phosphorylation in cortical neurons. Type of assay: cell-based. The conditions noted are these: potentation at a PAM concentration of 10 nM of 0.4 nM BDNF-induced TrkB phosphorylation in cortical neurons. The text has this: It is meant by “positive allosteric modulator” (PAM), also known as allosteric enhancer or potentiator, a compound that induces an amplification of the effect of receptor's response to the primary ligand without directly activating the receptor. Within this invention, PAM TrkB activity is related to the potentation of BDNF effects on the functional activity of the TrkB receptor, measured in vitro or in vivo by mean of a specific TrkB receptor phosphorylation assay.
In Vitro Activity of LIT-TB Derivatives in a TrkB Phosphorylation Assay
As for `O=C(CCc1nnc2ccc(N3CCCCC3)nn12)NC1CCN(Cc2ccccc2)CC1` [LIT-TB002, N-(1-benzylpiperidin-4-yl)-3-[6-(piperidin-1-yl)-[1,2,4]triazolo[4,3-b]pyridazin-3-yl]propanamide], the “PAM TrkB activity” value is on record as “++ (++: 20-35%)”.

In the case of `O=C(CCc1nnc2ccc(N3CCC(N4CCCCC4)CC3)nn12)NC1CCN(Cc2ccccc2)CC1` [LIT-TB003, 3-(6-([1,4′-bipiperidin]-1′-yl)-[1,2,4]triazolo[4,3-b]pyridazin-3-yl)-N-(1-benzylpiperidin-4-yl) propanamide], the “PAM TrkB activity” value is “++ (++: 20-35%)”.

Regarding `O=C(CCc1nnc2ccc(N3CCN(c4ncccn4)CC3)nn12)NC1CCN(Cc2ccccc2)CC1` [LIT-TB004, N-(1-benzylpiperidin-4-yl)-3-(6-(4-(pyrimidin-2-yl)piperazin-1-yl)-[1,2,4]triazolo[4,3-b]pyridazin-3-yl)propanamide], the “PAM TrkB activity” value is listed as “+ (+: <20%)”.

On to `O=C(CCc1nnc2ccc(N3CCN(Cc4ccccc4)CC3)nn12)NC1CCN(Cc2ccccc2)CC1` [LIT-TB005], for which the “PAM TrkB activity” value is listed as “+++ (+++: >35%)”.

`CN1CCN(c2ccc3nnc(CCC(=O)NC4CCN(Cc5ccccc5)CC4)n3c2)CC1` [LIT-TB006, N-(1-benzylpiperidin-4-yl)-3-(6-(4-methylpiperazin-1-yl)-[1,2,4]triazolo[4,3-a]pyridin-3-yl)propanamide]: the “PAM TrkB activity” value is on record as “+++ (+++: >35%)”.

With `CN1CCN(c2ccc3ncc(CCC(=O)NC4CCN(Cc5ccccc5)CC4)n3c2)CC1` [LIT-TB013, N-(1-benzylpiperidin-4-yl)-3-(6-(4-methylpiperazin-1-yl)imidazo[1,2-a]pyridin-3-yl)propanamide], the “PAM TrkB activity” value was “+++ (+++: >35%)”.

For the compound `CN1CCN(c2ccc3ncc(CCC(=O)NC4CCN(Cc5ccccc5)CC4)n3n2)CC1` [LIT-TB014, N-(1-benzylpiperidin-4-yl)-3-(6-(4-methylpiperazin-1-yl)imidazo[1,2-b]pyridazin-3-yl)propanamide], the “PAM TrkB activity” value was “++ (++: 20-35%)”.

For the compound `CN1CCN(c2ccc3nnc(CCCNC4CCN(Cc5ccccc5)CC4)n3n2)CC1` [LIT-TB015, 1-benzyl-N-(3-(6-(4-methylpiperazin-1-yl)-[1,2,4]triazolo[4,3-b]pyridazin-3-yl)propyl)piperidin-4-amine], the “PAM TrkB activity” value is “+++ (+++: >35%)”.

As to `CN1CCC(NC(=O)CCc2nnc3ccc(N4CCN(C)CC4)nn23)CC1` [LIT-TB016, 3-[6-(4-methylpiperazin-1-yl)-[1,2,4]triazolo[4,3-b]pyridazin-3-yl]-N-(1-methyl-piperidin-4-yl)propanamide], the “PAM TrkB activity” value is “+++ (+++: >35%)”.

In the case of `COc1ccc(CN2CCC(NC(=O)CCc3nnc4ccc(N5CCN(C)CC5)nn34)CC2)cc1` [LIT-TB017, N-{1-[(4-methoxyphenyl)methyl]piperidin-4-yl}-3-[6-(4-methylpiperazin-1-yl)-[1,2,4]triazolo [4,3-b]pyridazin-3-yl]propanamide], the “PAM TrkB activity” value is on record as “+++ (+++: >35%)”.

As for `CN1CCN(c2ccc3nnc(CCC(=O)NC4CCN(Cc5cccc(Cl)c5)CC4)n3n2)CC1` [LIT-TB018, N-{1-[(3-chlorophenyl)methyl]piperidin-4-yl}-3-[6-(4-methylpiperazin-1-yl)-[1,2,4]triazolo[4,3-b]pyridazin-3-yl]propanamide], the “PAM TrkB activity” value was “+++ (+++: >35%)”.

For the compound `CN1CCN(c2ccc3nnc(CCC(=O)NC4CCN(Cc5ccccc5Cl)CC4)n3n2)CC1` [LIT-TB019, N-{1-[(2-chlorophenyl)methyl]piperidin-4-yl}-3-[6-(4-methylpiperazin-1-yl)-[1,2,4]triazolo[4,3-b]pyridazin-3-yl]propanamide], the “PAM TrkB activity” value was “+++ (+++: >35%)”.

In the case of `CN1CCN(c2ccc3nnc(CCC(=O)NC4CCN(Cc5ccc(F)cc5)CC4)n3n2)CC1` [LIT-TB020, N-{1-[(4-fluorophenyl)methyl]piperidin-4-yl}-3-[6-(4-methylpiperazin-1-yl)-[1,2,4]triazolo[4,3-b]pyridazin-3-yl]propanamide], the “PAM TrkB activity” value is “+++ (+++: >35%)”.

In the case of `CN1CCN(c2ccc3nnc(CCC(=O)NC4CCNCC4)n3n2)CC1` [LIT-TB021, 3-(6-(4-methylpiperazin-1-yl)-[1,2,4]triazolo[4,3-b]pyridazin-3-yl)-N-(piperidin-4-yl)propanamide], the “PAM TrkB activity” value is recorded as “+ (+: <20%)”.

Regarding `CN1CCN(c2ccc3nnc(CCC(=O)NC4CCN(Cc5ccccc5F)CC4)n3n2)CC1` [LIT-TB022, N-{1-[(2-fluorophenyl)methyl]piperidin-4-yl}-3-[6-(4-methylpiperazin-1-yl)-[1,2,4]triazolo[4,3-b]pyridazin-3-yl]propanamide], the “PAM TrkB activity” value is given as “+++ (+++: >35%)”.

Turning to `CC(c1ccccc1)N1CCC(NC(=O)CCc2nnc3ccc(N4CCN(C)CC4)nn23)CC1` (stereo not drawn) [LIT-TB023, 3-[6-(4-methylpiperazin-1-yl)-[1,2,4]triazolo[4,3-b]pyridazin-3-yl]-N-[1-(1-phenylethyl)piperidin-4-yl]propanamide], the “PAM TrkB activity” value is recorded as “+ (+: <20%)”.

`Cc1ccccc1CN1CCC(NC(=O)CCc2nnc3ccc(N4CCN(C)CC4)nn23)CC1` [LIT-TB024, N-{1-[(2-methylphenyl)methyl]piperidin-4-yl}-3-[6-(4-methylpiperazin-1-yl)-[1,2,4]triazolo[4,3-b]pyridazin-3-yl]propanamide]: the “PAM TrkB activity” value was “+++ (+++: >35%)”.

For the compound `CN1CCN(c2ccc3nnc(CCC(=O)NC4CCN(Cc5ccncc5)CC4)n3n2)CC1` [LIT-TB025, 3-[6-(4-methylpiperazin-1-yl)-[1,2,4]triazolo[4,3-b]pyridazin-3-yl]-N-[1-(pyridin-4-ylmethyl)piperidin-4-yl]propanamide], the “PAM TrkB activity” value was “+ (+: <20%)”.

Regarding `CN1CCN(c2ccc3nnc(CCC(=O)NC4CCN(Cc5ccc(Cl)c(Cl)c5)CC4)n3n2)CC1` [LIT-TB026, N-{1-[(3,4-dichlorophenyl)methyl]piperidin-4-yl}-3-[6-(4-methylpiperazin-1-yl)-[1,2,4]triazolo[4,3-b]pyridazin-3-yl]propanamide], the “PAM TrkB activity” value is “+ (+: <20%)”.

On to `CN1CCN(c2ccc3nnc(CCC(=O)NC4CCN(C(=O)c5ccccc5)CC4)n3n2)CC1.Cl` [LIT-TB027, N-(1-benzoylpiperidin-4-yl)-3-[6-(4-methylpiperazin-1-yl)-[1,2,4]triazolo[4,3-b]pyridazin-3-yl]propanamide hydrochloride], for which the “PAM TrkB activity” value is “+ (+: <20%)”.

Take `CN1CCN(c2ccc3nnc(CCC(=O)NC4CCN(Cc5ccc(Cl)cc5)CC4)n3n2)CC1` [LIT-TB028, N-{1-[(4-chlorophenyl)methyl]piperidin-4-yl}-3-[6-(4-methylpiperazin-1-yl)-[1,2,4]triazolo[4,3-b]pyridazin-3-yl]propanamide]: the “PAM TrkB activity” value is given as “+ (+: <20%)”.

In the case of `CN1CCN(c2ccc3nnc(CCC(=O)NC4CCN(CC5CCCCC5)CC4)n3n2)CC1` [LIT-TB031, N-[1-(cyclohexylmethyl)piperidin-4-yl]-3-[6-(4-methylpiperazin-1-yl)-[1,2,4]triazolo[4,3-b]pyridazin-3-yl]propanamide], the “PAM TrkB activity” value is on record as “+++ (+++: >35%)”.

Consider `Cc1[nH]cnc1CN1CCC(NC(=O)CCc2nnc3ccc(N4CCN(C)CC4)nn23)CC1` [LIT-TB032, N-{1-[(5-methyl-1H-imidazol-4-yl)methyl]piperidin-4-yl}-3-[6-(4-methylpiperazin-1-yl)-[1,2,4]triazolo [4,3-b]pyridazin-3-yl]propanamide], for which the “PAM TrkB activity” value is reported as “+++ (+++: >35%)”.

With `CN1CCN(c2ccc3nnc(CCC(=O)NC4CCN(Cc5ccccc5)C(=O)C4)n3n2)CC1` (stereo not drawn) [LIT-TB033, N-(1-benzyl-2-oxopiperidin-4-yl)-3-[6-(4-methylpiperazin-1-yl)-[1,2,4]triazolo[4,3-b]pyridazin-3-yl]propanamide], the “PAM TrkB activity” value was “+ (+: <20%)”.

For the compound `CN1CCN(c2ccc3nnc(CCC(=O)NC4CCC(Cc5ccccc5)CC4)n3n2)CC1` (stereo not drawn) [LIT-TB034, N-(4-benzylcyclohexyl)-3-[6-(4-methylpiperazin-1-yl)-[1,2,4]triazolo[4,3-b]pyridazin-3-yl]propanamide], the “PAM TrkB activity” value is “+ (+: <20%)”.

On to `CN1CCN(c2ccc3nnc(CCC(=O)NC4CCN(c5ccccc5)CC4)n3n2)CC1` [LIT-TB035, 3-[6-(4-methylpiperazin-1-yl)-[1,2,4]triazolo[4,3-b]pyridazin-3-yl]-N-(1-phenylpiperidin-4-yl)propanamide], for which the “PAM TrkB activity” value is on record as “++ (++: 20-35%)”.

On to `CN1CCN(c2ccc3nnc(CCC(=O)NC4CCN(Cc5ccc(F)cc5F)CC4)n3n2)CC1` [LIT-TB040, N-{1-[(2,4-difluorophenyl)methyl]piperidin-4-yl}-3-[6-(4-methylpiperazin-1-yl)-[1,2,4]triazolo[4,3-b]pyridazin-3-yl]propanamide], for which the “PAM TrkB activity” value was “++ (++: 20-35%)”.

Consider `Cc1cc(F)ccc1CN1CCC(NC(=O)CCc2nnc3ccc(N4CCN(C)CC4)nn23)CC1` [LIT-TB044, N-{1-[(4-fluoro-2-methylphenyl)methyl]piperidin-4-yl}-3-[6-(4-methylpiperazin-1-yl)-[1,2,4]triazolo[4,3-b]pyridazin-3-yl]propanamide], for which the “PAM TrkB activity” value is “++ (++: 20-35%)”.

Regarding `COc1ccc(CN2CCC(NC(=O)CCc3nnc4ccc(N5CCN(C)CC5)nn34)CC2)c(C)c1.Cl.Cl` [LIT-TB045, N-{1-[(4-methoxy-2-methylphenyl)methyl]piperidin-4-yl}-3-[6-(4-methylpiperazin-1-yl)-[1,2,4]triazolo[4,3-b]pyridazin-3-yl]propanamide dihydrochloride], the “PAM TrkB activity” value was “+++ (+++: >35%)”.

As for `COc1ccc(CN2CCC(NC(=O)CCc3nnc4ccc(N5CCN(C)CC5)nn34)CC2)c(F)c1.Cl.Cl` [LIT-TB046, N-{1-[(2-fluoro-4-methoxyphenyl)methyl]piperidin-4-yl}-3-[6-(4-methylpiperazin-1-yl)-[1,2,4]triazolo[4,3-b]pyridazin-3-yl]propanamide dihydrochloride], the “PAM TrkB activity” value was “+ (+: <20%)”.
